Columns and labels:
HCT116 [1] = test: efficacy (fitted maximal change in viability relative to DMSO control); higher = less cytotoxic (negative = loss of viability); details: 48 h
HCT116 [2] = test: AC50 cell viability (CellTiter-Glo); higher = less potent; details: 48 h
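Throughout, for AC50 cell viability (CellTiter-Glo): HCT116 colorectal carcinoma cells screened at five concentrations per compound, luminescent viability scaled between DMSO wells and empty wells on each plate, curves fitted per compound.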
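Throughout, for efficacy (fitted maximal change in viability relative to DMSO control): Luminescence-based viability readout, five doses per compound, normalized against on-plate DMSO and empty-well controls, followed by dose-response curve fitting for every drug.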

Q: What does the source list for `COc1cccc2c(NCc3ccccc3)nc(-n3c(N)nc4ccccc43)nc12`?
A: efficacy (HCT116 [1]): -93.4%; AC50 cell viability (HCT116 [2]): 5.9 µM

Q: With `COc1ccc(OC)c(-c2nnc3ccc(-c4ccc(OC)c(O[C@@H]5CCOC5)c4)nn23)c1` as the compound, how does the efficacy (HCT116 [1]) read?
A: -66.5%

Q: And the AC50 cell viability (HCT116 [2])?
A: 2.95 µM

Q: `COc1cc(OC)c(/C=C/[S+](=O)([O-])Cc2ccc(OC)c(NCC(=O)[O-])c2)c(OC)c1` was tested. Which efficacy (HCT116 [1]) did it give?
A: -58.9%

Q: And the AC50 cell viability (HCT116 [2])?
A: 0.0661 µM

Q: Which results are given for `COc1cc2ncn(-c3cc(OCc4ccccc4C(F)(F)F)c(C(N)=O)s3)c2cc1OC`?
A: efficacy (HCT116 [1]): -78.4%; AC50 cell viability (HCT116 [2]): 0.934 µM

Q: For `COc1cc2ncnc(Nc3cccc(Br)c3)c2cc1OC`, which efficacy (HCT116 [1]) is on record?
A: -53%

Q: What about the AC50 cell viability (HCT116 [2]) of the same compound?
A: 20.9 µM

Q: What does the source list for `COc1ccc(N(C(=O)Oc2c(C)cccc2C)c2ccnc(Nc3ccc(N4CCN(C)CC4)cc3)n2)c(OC)c1`?
A: efficacy (HCT116 [1]): -41%; AC50 cell viability (HCT116 [2]): 0.661 µM

Q: What does the source list for `COc1ccc2c(c1)[C@]1(C[C@H]1c1ccc3c(/C=C/c4ccc(CN5C[C@@H](C)O[C@@H](C)C5)cc4)n[nH]c3c1)C(=O)N2`?
A: efficacy (HCT116 [1]): -83.6%; AC50 cell viability (HCT116 [2]): 13.2 µM

Q: What does the source list for `COC1=CC=CC(=C1N)\C2=C\C(=O)C3=C(O2)C=CC=C3`?
A: efficacy (HCT116 [1]): -52.9%; AC50 cell viability (HCT116 [2]): 16.6 µM

Q: With `CO[C@@H](C)Cn1c(=O)n(C)c2cnc3ccc(-c4cncc(C(C)(C)O)c4)cc3c21` as the compound, how does the efficacy (HCT116 [1]) read?
A: -82.3%

Q: And the AC50 cell viability (HCT116 [2])?
A: 1.05 µM

Q: `C[C@@H]1CCNC(=O)c2cc3ccc(C(=O)Nc4nc5ccccc5n4CCCN(C)C)cc3n21` was tested. Which efficacy (HCT116 [1]) did it give?
A: -92.3%

Q: And the AC50 cell viability (HCT116 [2])?
A: 11.8 µM

Q: For `C[C@H](CN(C)C)Oc1nc(Nc2cc3cccc(Cl)c3cn2)cnc1C#N`, which efficacy (HCT116 [1]) is on record?
A: -31.2%

Q: What about the AC50 cell viability (HCT116 [2]) of the same compound?
A: 3.32 µM

Q: Which efficacy (HCT116 [1]) does the source give for `C[C@H]1C[C@@H](n2c(Nc3ccc(OC(F)(F)F)cc3)nc3cc(CCC(=O)O)ccc32)CC(C)(C)C1` here?
A: -65%

Q: What about the AC50 cell viability (HCT116 [2]) of the same compound?
A: 20.9 µM

Q: Which results are given for `Cc1cc(C(=O)Nc2cc(Nc3ccc4c(/C=C/c5ccccn5)[nH]nc4c3)ccc2F)n(C)n1`?
A: efficacy (HCT116 [1]): -99.1%; AC50 cell viability (HCT116 [2]): 10.5 µM

Q: `Cn1ncc2cc(-c3cnc(N)c(Cl)c3N3CCC4(CCNC4=O)CC3)ccc21` was tested. Which efficacy (HCT116 [1]) did it give?
A: -46.1%

Q: What about the AC50 cell viability (HCT116 [2]) of the same compound?
A: 16.6 µM

Q: Which results are given for `Cn1nccc1Nc1nccc(-c2cc3c(s2)C(C)(C)N(CCN2CCOCC2)C3=O)n1`?
A: efficacy (HCT116 [1]): -57.4%; AC50 cell viability (HCT116 [2]): 0.525 µM

Q: How did the efficacy (HCT116 [1]) turn out when `Clc1cc(Cl)cc(CNc2ncncc2-c2ccc3c(c2)OCO3)c1` was run?
A: -78.4%

Q: What about the AC50 cell viability (HCT116 [2]) of the same compound?
A: 13.2 µM

Q: With `N#Cc1ccc(Cn2cncc2CN2CCN(c3cccc(Cl)c3)C(=O)C2)cc1` as the compound, how does the efficacy (HCT116 [1]) read?
A: -46%

Q: What about the AC50 cell viability (HCT116 [2]) of the same compound?
A: 0.332 µM

Q: For `O=C(Nc1cnccc1Cl)N1CCN(Cc2ccc3c(c2)OC(F)(F)O3)CC1`, which efficacy (HCT116 [1]) is on record?
A: -56.5%

Q: And the AC50 cell viability (HCT116 [2])?
A: 14.8 µM

Q: With `NC(=O)c1ccc2nc(-c3ccc(C4(N)CCC4)cc3)c(-c3ccccc3)n2n1` as the compound, how does the efficacy (HCT116 [1]) read?
A: -103%

Q: What about the AC50 cell viability (HCT116 [2]) of the same compound?
A: 20.9 µM

Q: With `C=CC(=O)N1CCC[C@@H](n2nc(-c3ccc(Oc4ccccc4)cc3)c3c(N)ncnc32)C1` as the compound, how does the efficacy (HCT116 [1]) read?
A: -90.8%

Q: And the AC50 cell viability (HCT116 [2])?
A: 16.6 µM

Q: With `Nc1nc(NCCNc2ncc(-n3ccnc3)c(-c3ccc(Cl)cc3Cl)n2)ccc1[N+](=O)[O-]` as the compound, how does the efficacy (HCT116 [1]) read?
A: -32%

Q: What about the AC50 cell viability (HCT116 [2]) of the same compound?
A: 2.09 µM

Q: What does the source list for `N#Cc1ccc(COC[C@H]2O[C@@H](n3c(NCc4ccc(Cl)c(Cl)c4)nc4c(N)ncnc43)[C@H](O)[C@@H]2O)cc1`?
A: efficacy (HCT116 [1]): -99.6%; AC50 cell viability (HCT116 [2]): 16.6 µM

Q: What does the source list for `NC(=O)c1cnc(N[C@@H]2CCCC[C@@H]2N)nc1Nc1cccc(-n2nccn2)c1`?
A: efficacy (HCT116 [1]): -90.7%; AC50 cell viability (HCT116 [2]): 10.5 µM

Q: With `O=C(Nc1ccc2[nH]nc(-c3ccncc3)c2c1)[C@@H]1CCN(CC(=O)N2CCN(c3ccc(-c4ncccn4)cc3)CC2)C1` as the compound, how does the efficacy (HCT116 [1]) read?
A: -64.3%

Q: And the AC50 cell viability (HCT116 [2])?
A: 0.295 µM

Q: Which efficacy (HCT116 [1]) does the source give for `O=C(NC1CC1)c1cccc(-c2ccc3c(NC(=O)C4CC4)n[nH]c3c2)c1` here?
A: -52.3%

Q: What about the AC50 cell viability (HCT116 [2]) of the same compound?
A: 9.34 µM

Q: How did the efficacy (HCT116 [1]) turn out when `Oc1ccc(C2CCN(c3ccnc4ccccc34)CC2)cc1O` was run?
A: -49%

Q: And the AC50 cell viability (HCT116 [2])?
A: 11.8 µM

Q: Which results are given for `OC1CCC(CC1)N2\C=N/C3=C(C2=N)C(=C([N]3CC4=CC=CC=C4)C5=CC=CC=C5)C6=CC=CC=C6` (stereo unspecified)?
A: efficacy (HCT116 [1]): -107%; AC50 cell viability (HCT116 [2]): 2.95 µM

Q: `OC1CCC(Nc2ncc3nc(Nc4c(F)cc(F)cc4F)n([C@@H]4CCOC4)c3n2)CC1` (stereo partly specified) was tested. Which efficacy (HCT116 [1]) did it give?
A: -43.3%

Q: What about the AC50 cell viability (HCT116 [2]) of the same compound?
A: 18.6 µM

Q: Which efficacy (HCT116 [1]) does the source give for `O=C(NOCC(O)CO)c1cc(Br)c(F)c(F)c1Nc1ccc(I)cc1F` (stereo unspecified) here?
A: -69.5%

Q: And the AC50 cell viability (HCT116 [2])?
A: 0.934 µM

Q: Which efficacy (HCT116 [1]) does the source give for `OCCCNc1cc(-c2ccnc(Nc3cccc(Cl)c3)n2)ccn1` here?
A: -58.5%

Q: What about the AC50 cell viability (HCT116 [2]) of the same compound?
A: 0.059 µM

Q: With `O=C(N[C@H]1CCC[C@H](CO)C1)C1CCN(c2nc3cc(Cl)c(-c4ccc(Cl)cc4)cc3o2)CC1` as the compound, how does the efficacy (HCT116 [1]) read?
A: -83.2%

Q: What about the AC50 cell viability (HCT116 [2]) of the same compound?
A: 23.5 µM

Q: What does the source list for `O=[N+]([O-])c1ccc(Nc2ccccc2-c2ccccc2)c2nonc12`?
A: efficacy (HCT116 [1]): -90.7%; AC50 cell viability (HCT116 [2]): 16.6 µM

Q: What does the source list for `O=C1c2ccccc2-c2n[nH]c3cccc1c23`?
A: efficacy (HCT116 [1]): -63.8%; AC50 cell viability (HCT116 [2]): 13.2 µM

Source: the supplement of paper PMC10290057
